In general, viscosity refers to the internal friction of a fluid under shear.

Consider three molecules from the NIST ThermoML archive (doi:10.1021/acs.jced.8b01042).

The conditions of data set [1]: 298.15 K; 100 kPa; Liquid; Capillary tube (Ostwald / Ubbelohde) method.
A short description of data set [2]: xn = mol fraction of the nth substance listed. The note with it: 298.15 K; 101.3 kPa; Liquid; Capillary tube (Ostwald / Ubbelohde) method; x1 = 0.66.

SMILES strings stand for the structures. ± gives the expanded uncertainty stated by the source.

For the molecule `OCC(O)CO` [glycerol], the viscosity in data set [1] is listed as 1200 ± 97 mPa·s. Consider `OC1COCOC1` [1,3-dioxan-5-ol] + OCC1COCO1, for which the viscosity in data set [2] turned out to be 20.05 ± 0.84 mPa·s.

Turning to `CC1(C)OCC(CO)O1` (stereo not drawn) [2,2-dimethyl-1,3-dioxolane-4-methanol], the viscosity in data set [1] is 10.06 ± 0.42 mPa·s.
